Data taken from ChEMBL document CHEMBL1152498, “Minor structural differences of monomethine cyanine derivatives yield strong variation in their interactions with DNA, RNA as well as on their in vitro antiproliferative activity” (Bioorg Med Chem, 2009).
Activity calls are given as the source filed them. No cut-off for these calls is given here.

Assays:
Calf thymus DNA [1] = assay: Binding affinity to calf thymus double stranded DNA at pH 7 by fluorometric titration method; type: nucleic-acid assay; details: Bos taurus
Nucleic Acid [2] = assay: Binding affinity to double stranded RNA at pH 7 by fluorometric titration method; type: nucleic-acid assay
Nucleic Acid [3] = assay: Binding affinity to poly A-poly U at pH 7 by fluorometric titration method; type: nucleic-acid assay
Calf thymus DNA [4] = assay: Binding affinity to calf thymus double helix DNA assessed as thermal denaturation-associated change in melting temperature at pH 7 by tangent method; type: nucleic-acid assay; details: Bos taurus
Nucleic Acid [5] = assay: Binding affinity to poly A-poly U assessed as thermal denaturation-associated change in melting temperature at pH 7 by tangent method; type: nucleic-acid assay
Nucleic Acid [6] = assay: Binding affinity to poly A single stranded RNA at pH 7 by fluorometric titration method; type: nucleic-acid assay
Nucleic Acid [7] = assay: Binding affinity to poly G single stranded RNA at pH 7 by fluorometric titration method; type: nucleic-acid assay
Nucleic Acid [8] = assay: Binding affinity to poly C single stranded RNA at pH 7 by fluorometric titration method; type: nucleic-acid assay
Nucleic Acid [9] = assay: Binding affinity to poly U single stranded RNA at pH 7 by fluorometric titration method; type: nucleic-acid assay
SW-620 = assay: Cytotoxicity against human SW620 cells after 72 hrs by MTT assay; type: functional, cell-based; details: SW-620, 72 h
HT-29 = assay: Cytotoxicity against human HT-29 cells after 72 hrs by MTT assay; type: functional, cell-based; details: HT-29, 72 h
Caco-2 = assay: Cytotoxicity against human Caco-2 cells after 72 hrs by MTT assay; type: functional, cell-based; details: Caco-2, 72 h
HeLa [10] = assay: Cytotoxicity against human HeLa cells after 72 hrs by MTT assay; type: functional, cell-based
MIA PaCa-2 = assay: Cytotoxicity against human MIAPaCa2 cells after 72 hrs by MTT assay; type: functional, cell-based; details: MIA PaCa-2, 72 h
[11] = Cytotoxicity against human Hep2 cells after 72 hrs by MTT assay; type: cell-based; details: HEp-2, 72 h
NCI-H358 = assay: Cytotoxicity against human NCI-H358 cells after 72 hrs by MTT assay; type: functional, cell-based; details: NCI-H358, 72 h
K562 = assay: Cytotoxicity against human K562 cells after 72 hrs by MTT assay; type: functional, cell-based; details: K562, 72 h
Jurkat = assay: Cytotoxicity against human Jurkat cells after 72 hrs by MTT assay; type: functional, cell-based
HuT78 = assay: Cytotoxicity against human HUT78 cells after 72 hrs by MTT assay; type: functional, cell-based; details: HuT78, 72 h
[12] = Cytotoxicity against HAEC after 72 hrs by MTT assay; parameters: species or system Homo sapiens
[13] = Cytotoxicity against human lymphocytes after 72 hrs by MTT assay; type: cell-based; details: Lymphocyte
HeLa [14] = assay: Cytotoxicity against human HeLa cells at 0.1 uM after 60 mins by DAPI staining-based visible light microscopy; type: functional, cell-based
Nucleic Acid [15] = assay: Binding affinity to nuclear DNA in human HeLa cells at 0.1 uM after 60 mins by DAPI staining-based fluorescence microscopy; type: cell-based

CC1=C/C(=C/c2oc3ccccc3[n+]2C)N=C2Sc3cc(OCCO)ccc3N12.[O-][Cl+3]([O-])([O-])[O-]
log Ks (Calf thymus DNA [1]): 4.6
Activity (Nucleic Acid [2]): Active
log Ks (Nucleic Acid [3]): 4.3
ΔTm (Calf thymus DNA [4]): 0.8 °C
ΔTm (Nucleic Acid [5]): 0 °C
Activity (Nucleic Acid [6]): Active
log Ks (Nucleic Acid [7]): > 6
log Ks (Nucleic Acid [8]): < 4
log Ks (Nucleic Acid [9]): < 4
IC50 (SW-620): 5200 nM
IC50 (HT-29): 7200 nM
IC50 (Caco-2): 40000 nM
IC50 (HeLa [10]): 80000 nM
IC50 (MIA PaCa-2): 8500 nM
IC50 [11]: 6800 nM
IC50 (NCI-H358): 9000 nM
IC50 (K562): 70 nM
IC50 (Jurkat): 6600 nM
IC50 (HuT78): 700 nM
IC50 [12]: 70000 nM
IC50 [13]: 590 nM

CC1=C/C(=C/c2sc3ccccc3[n+]2C)N=C2Sc3cc(OCCO)ccc3N12.[O-][Cl+3]([O-])([O-])[O-]
log Ks (Calf thymus DNA [1]): 4.8
Activity (Nucleic Acid [2]): Active
log Ks (Nucleic Acid [3]): 4.5
ΔTm (Calf thymus DNA [4]): 1.3 °C
ΔTm (Nucleic Acid [5]): 0 °C
Activity (Nucleic Acid [6]): Active
log Ks (Nucleic Acid [7]): > 6
log Ks (Nucleic Acid [8]): < 4
log Ks (Nucleic Acid [9]): < 4
IC50 (SW-620): 550 nM
IC50 (HT-29): 1100 nM
IC50 (Caco-2): > 100000 nM
IC50 (HeLa [10]): 80000 nM
IC50 (MIA PaCa-2): 510 nM
IC50 [11]: 930 nM
IC50 (NCI-H358): 2100 nM
IC50 (K562): 60 nM
IC50 (Jurkat): 900 nM
IC50 (HuT78): 500 nM
IC50 [12]: > 200000 nM
IC50 [13]: 1200 nM

COc1ccc2c(c1)SC1=N/C(=C\c3sc4ccccc4[n+]3C)C=C(C)N12.[O-][Cl+3]([O-])([O-])[O-]
log Ks (Calf thymus DNA [1]): 4.5
Activity (Nucleic Acid [2]): Active
log Ks (Nucleic Acid [3]): 4.2
ΔTm (Calf thymus DNA [4]): 3 °C
ΔTm (Nucleic Acid [5]): 0 °C
Activity (Nucleic Acid [6]): Active
log Ks (Nucleic Acid [7]): > 6
log Ks (Nucleic Acid [8]): < 4
log Ks (Nucleic Acid [9]): < 4
IC50 (SW-620): 200 nM
IC50 (HT-29): 500 nM
IC50 (Caco-2): 800 nM
IC50 (HeLa [10]): 500 nM
IC50 (MIA PaCa-2): 60 nM
IC50 [11]: 500 nM
IC50 (NCI-H358): 600 nM
IC50 (K562): 1 nM
IC50 (Jurkat): 100 nM
IC50 (HuT78): 10 nM
IC50 [12]: 3300 nM
IC50 [13]: 100 nM
Activity (HeLa [14]): inactive
Activity (Nucleic Acid [15]): inactive

CC1=C/C(=C/c2sc3ccccc3[n+]2C)N=C2C=CC=CN12.[O-][Cl+3]([O-])([O-])[O-]
Activity (Calf thymus DNA [1]): inactive
Activity (Nucleic Acid [2]): inactive
ΔTm (Calf thymus DNA [4]): 1.9 °C
ΔTm (Nucleic Acid [5]): 10.4 °C
Activity (Nucleic Acid [6]): inactive
Activity (Nucleic Acid [7]): inactive
Activity (Nucleic Acid [8]): inactive
Activity (Nucleic Acid [9]): inactive
IC50 (SW-620): 7000 nM
IC50 (HT-29): 5200 nM
IC50 (Caco-2): 10100 nM
IC50 (HeLa [10]): 9900 nM
IC50 (MIA PaCa-2): 1800 nM
IC50 [11]: 3600 nM
IC50 (NCI-H358): 2000 nM
IC50 (K562): 90 nM
IC50 (Jurkat): 1300 nM
IC50 (HuT78): 200 nM
IC50 [12]: 9600 nM
IC50 [13]: 600 nM

COc1ccc2c(c1)SC1=N/C(=C\c3oc4ccccc4[n+]3C)C=C(C)N12.[O-][Cl+3]([O-])([O-])[O-]
log Ks (Calf thymus DNA [1]): 5
Activity (Nucleic Acid [2]): Active
ΔTm (Calf thymus DNA [4]): 2.7 °C
ΔTm (Nucleic Acid [5]): 0 °C
Activity (Nucleic Acid [6]): Active
log Ks (Nucleic Acid [7]): > 6
log Ks (Nucleic Acid [8]): < 4
log Ks (Nucleic Acid [9]): < 4
IC50 (SW-620): 600 nM
IC50 (HT-29): 500 nM
IC50 (Caco-2): 1000 nM
IC50 (HeLa [10]): 2100 nM
IC50 (MIA PaCa-2): 500 nM
IC50 [11]: 700 nM
IC50 (NCI-H358): 800 nM
IC50 (K562): 1 nM
IC50 (Jurkat): 500 nM
IC50 (HuT78): 100 nM
IC50 [12]: 1100 nM
IC50 [13]: 40 nM
Activity (HeLa [14]): inactive
Activity (Nucleic Acid [15]): inactive

CC1=C/C(=C/c2oc3ccccc3[n+]2C)N=C2Sc3cc(Cl)ccc3N12.[O-][Cl+3]([O-])([O-])[O-]
log Ks (Calf thymus DNA [1]): 4.6
Activity (Nucleic Acid [2]): Active
log Ks (Nucleic Acid [3]): 4.5
ΔTm (Calf thymus DNA [4]): 1 °C
ΔTm (Nucleic Acid [5]): 0 °C
Activity (Nucleic Acid [6]): Active
log Ks (Nucleic Acid [7]): > 6
log Ks (Nucleic Acid [8]): < 4
log Ks (Nucleic Acid [9]): < 4
IC50 (SW-620): 5800 nM
IC50 (HT-29): 5100 nM
IC50 (Caco-2): 8200 nM
IC50 (HeLa [10]): 3900 nM
IC50 (MIA PaCa-2): 2100 nM
IC50 [11]: 7000 nM
IC50 (NCI-H358): 1100 nM
IC50 (K562): 60 nM
IC50 (Jurkat): 520 nM
IC50 (HuT78): 60 nM
IC50 [12]: 50300 nM
IC50 [13]: 90 nM

CCOc1ccc2c(c1)SC1=N/C(=C\c3oc4ccccc4[n+]3C)C=C(C)N12.[O-][Cl+3]([O-])([O-])[O-]
log Ks (Calf thymus DNA [1]): 4.7
Activity (Nucleic Acid [2]): Active
log Ks (Nucleic Acid [3]): 4.5
ΔTm (Calf thymus DNA [4]): 4 °C
ΔTm (Nucleic Acid [5]): 0 °C
Activity (Nucleic Acid [6]): Active
log Ks (Nucleic Acid [7]): > 6
log Ks (Nucleic Acid [8]): < 4
log Ks (Nucleic Acid [9]): < 4
IC50 (SW-620): 100 nM
IC50 (HT-29): 600 nM
IC50 (Caco-2): 800 nM
IC50 (HeLa [10]): 2000 nM
IC50 (MIA PaCa-2): 100 nM
IC50 [11]: 500 nM
IC50 (NCI-H358): 100 nM
IC50 (K562): 1 nM
IC50 (Jurkat): 90 nM
IC50 (HuT78): 50 nM
IC50 [12]: 1000 nM
IC50 [13]: 10 nM

CC1=C/C(=C/c2oc3ccccc3[n+]2C)C(C#N)=C2Sc3ccccc3N12.[O-][Cl+3]([O-])([O-])[O-]
log Ks (Calf thymus DNA [1]): 5.1
Activity (Nucleic Acid [2]): Active
log Ks (Nucleic Acid [3]): 6.8
ΔTm (Calf thymus DNA [4]): 4.1 °C
ΔTm (Nucleic Acid [5]): 19.5 °C
log Ks (Nucleic Acid [6]): 6.2
log Ks (Nucleic Acid [7]): > 6
log Ks (Nucleic Acid [8]): < 4
log Ks (Nucleic Acid [9]): < 4
IC50 (SW-620): 6800 nM
IC50 (HT-29): 5900 nM
IC50 (Caco-2): 9600 nM
IC50 (HeLa [10]): 8200 nM
IC50 (MIA PaCa-2): 2200 nM
IC50 [11]: 5500 nM
IC50 (NCI-H358): 2400 nM
IC50 (K562): 50 nM
IC50 (Jurkat): 3900 nM
IC50 (HuT78): 500 nM
IC50 [12]: 50100 nM
IC50 [13]: 100 nM
